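Exposure lasted 48 hours, with cells grown in 96-well plates and compounds tested at five concentrations. GI50: concentration for 50% inhibition of growth. TGI: concentration producing complete growth inhibition.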
Tests used:
Assay in all cases: DTP human tumour cell line panel, 48 h
[1] = system: SK-MEL-28 melanoma
[2] = system: UACC-257 melanoma
[3] = system: RXF 393 renal
[4] = system: DU-145 prostate
[5] = system: NCI/ADR-RES ovarian
[6] = system: COLO 205 colon
[7] = system: PC-3 prostate
[8] = system: UO-31 renal
[9] = system: SK-OV-3 ovarian
[10] = system: TK-10 renal

SMILES: COc1cc(C(=O)N/N=C/c2ccc(N(C)C)cc2)cc(OC)c1OC
- GI50 [1]: 0.622 µM
- TGI [1]: > 100 µM
- TGI [2]: > 100 µM
- GI50 [3]: 0.234 µM
- GI50 [4]: 0.415 µM
- TGI [4]: 2.79 µM
- GI50 [5]: 0.337 µM
- TGI [5]: 1.6 µM
- GI50 [6]: 0.406 µM
- TGI [6]: 1.64 µM
- GI50 [7]: 0.422 µM
- TGI [7]: > 100 µM
- GI50 [8]: 0.656 µM
- TGI [8]: > 100 µM
- GI50 [9]: 0.478 µM
- TGI [9]: > 31.1 µM

SMILES: O=C1c2cccc(NCCN=Cc3ccccc3O)c2C(=O)c2c(NCCN=Cc3ccccc3O)cccc21
- GI50 [1]: 1.54 µM
- TGI [1]: 3.37 µM
- GI50 [2]: 1.44 µM
- TGI [2]: 4.3 µM
- GI50 [4]: 0.364 µM
- TGI [4]: 1.55 µM
- GI50 [5]: 11.5 µM
- TGI [5]: 97.1 µM
- GI50 [6]: 0.46 µM
- TGI [6]: 2.18 µM
- GI50 [10]: 1.71 µM
- TGI [10]: 5.52 µM
- GI50 [7]: 1.03 µM
- TGI [7]: 5.87 µM
- GI50 [8]: 0.596 µM
- TGI [8]: 3.06 µM
- GI50 [9]: 1.5 µM
- TGI [9]: 4.99 µM

SMILES: COC(=O)C(Cc1nc2ccccc2nc1C)/C(=N\NC(N)=O)C(=O)Nc1cccc([N+](=O)[O-])c1 (configuration not stated)
- TGI [1]: > 100 µM
- TGI [2]: > 100 µM
- TGI [3]: > 100 µM
- TGI [6]: > 100 µM
- TGI [10]: > 100 µM
- TGI [8]: > 100 µM
- TGI [9]: > 100 µM

SMILES: Cc1ccccc1-n1c2nc(=O)n(C)c(=O)c-2nc2ccccc21
- TGI [2]: 21.4 µM
- TGI [3]: 39.2 µM
- TGI [6]: 13.9 µM
- TGI [10]: 35.2 µM
- TGI [8]: 66.1 µM
- TGI [9]: > 100 µM

SMILES: NCCNCc1c2ccccc2c(CNCCN)c2ccccc12
- TGI [2]: 35.5 µM
- TGI [3]: 38.6 µM
- TGI [6]: > 100 µM
- TGI [10]: > 100 µM
- TGI [8]: > 100 µM

SMILES: CC1=CC(N2C(=O)C(C)=CC2O)NC1=O (configuration not stated)
- TGI [1]: > 100 µM
- TGI [2]: > 100 µM
- TGI [3]: > 100 µM
- TGI [6]: > 100 µM
- TGI [10]: > 100 µM
- TGI [8]: > 100 µM

SMILES: CC(C)NC(=O)CCN(C(=O)O)S(=O)(=O)c1ccc(NC(=O)c2ccccc2)cc1
- TGI [1]: > 100 µM
- TGI [2]: > 79.3 µM
- TGI [3]: > 100 µM
- TGI [6]: > 58.5 µM
- TGI [10]: > 100 µM
- TGI [8]: > 100 µM
- TGI [9]: > 100 µM

SMILES: CC(=O)Oc1ccc(/C(=C(\C)c2ccc(Cl)cc2)c2ccc(OCCN3CCCCC3)cc2)cc1
- GI50 [1]: 2.01 µM
- TGI [1]: 3.89 µM
- GI50 [2]: 2.05 µM
- TGI [2]: 4.11 µM
- GI50 [3]: 1.46 µM
- TGI [3]: 3 µM
- GI50 [4]: 1.92 µM
- TGI [4]: 3.83 µM
- GI50 [5]: 1.97 µM
- TGI [5]: 5.44 µM
- GI50 [6]: 1.79 µM
- TGI [6]: 3.5 µM
- GI50 [7]: 1.74 µM
- TGI [7]: 3.88 µM
- GI50 [8]: 1.59 µM
- TGI [8]: 3.09 µM
- GI50 [9]: 2.31 µM
- TGI [9]: 6.09 µM

SMILES: C=C(C(=C)P(=S)(c1ccccc1)c1ccccc1)P(=S)(c1ccccc1)c1ccccc1
- TGI [1]: > 100 µM
- TGI [2]: > 100 µM
- TGI [3]: > 100 µM
- TGI [6]: > 100 µM
- TGI [10]: > 100 µM
- TGI [9]: > 100 µM

SMILES: CC(C)(C)CC(N)=O
- TGI [1]: > 100 µM
- TGI [2]: > 100 µM
- TGI [4]: > 100 µM
- TGI [5]: > 100 µM
- TGI [6]: > 100 µM
- TGI [10]: > 100 µM
- TGI [7]: > 100 µM
- TGI [8]: > 100 µM
- TGI [9]: > 100 µM

SMILES: OCCN1CCN2C=C(C3CCCC4N(CCO)CCN34)CCC21 (configuration not stated)
- TGI [1]: > 100 µM
- TGI [2]: > 100 µM
- TGI [3]: > 85 µM
- TGI [6]: > 100 µM
- TGI [10]: > 100 µM
- TGI [8]: > 100 µM
- TGI [9]: > 100 µM

SMILES: COc1ccc(C2C=C(c3ccc4c(c3)OCO4)Oc3c2c(=O)oc2ccccc32)cc1OC (configuration not stated)
- TGI [1]: > 100 µM
- TGI [3]: > 45.5 µM
- TGI [4]: > 100 µM
- TGI [5]: > 100 µM
- TGI [6]: > 100 µM
- TGI [10]: > 78.1 µM
- TGI [7]: > 100 µM
- TGI [8]: > 100 µM
- TGI [9]: > 69.6 µM

SMILES: CN1CCN(C)C12C=CC=CC21CC1
- TGI [2]: > 100 µM
- TGI [3]: > 100 µM
- TGI [6]: > 100 µM
- TGI [10]: > 100 µM
- TGI [8]: > 100 µM
- TGI [9]: > 100 µM

SMILES: COC(=O)C1=C(C(=O)OC)C2(C)Nc3ccccc3C2=C(c2ccccc2)C1 (configuration not stated)
- TGI [1]: 40.7 µM
- TGI [2]: 39.7 µM
- TGI [3]: 54.3 µM
- TGI [6]: 34 µM
- TGI [10]: 69.9 µM
- TGI [8]: 38.2 µM

SMILES: CC(=O)Nc1ccc(COC(O)CN2CCCCC2)cc1[N+](=O)[O-] (configuration not stated)
- TGI [1]: > 100 µM
- TGI [2]: > 100 µM
- TGI [3]: > 100 µM
- TGI [4]: > 100 µM
- TGI [5]: > 100 µM
- TGI [6]: > 100 µM
- TGI [10]: > 100 µM
- TGI [7]: > 100 µM
- TGI [8]: > 100 µM

SMILES: N/N=c1\c2ccccc2c2cc3c(cc12)/c(=N/N)c1ccccc13
- TGI [1]: > 100 µM
- TGI [2]: > 100 µM
- TGI [3]: > 100 µM
- TGI [6]: > 100 µM
- TGI [8]: > 100 µM
- TGI [9]: > 100 µM

SMILES: Clc1ccc(-c2c(C3=NCCCN3)nnn2-c2ccccc2)cc1
- TGI [1]: > 100 µM
- TGI [2]: > 100 µM
- TGI [3]: > 100 µM
- TGI [6]: > 100 µM
- TGI [10]: > 100 µM
- TGI [8]: > 100 µM
- TGI [9]: > 100 µM

SMILES: O=C(/C(=C\c1ccc(Cl)cc1)c1ccccc1)c1ccccc1
- TGI [1]: > 100 µM
- TGI [2]: > 100 µM
- TGI [6]: > 100 µM
- TGI [10]: > 100 µM
- TGI [8]: > 100 µM
- TGI [9]: > 100 µM

SMILES: CC1(c2ccccc2)CC(c2cccc([N+](=O)[O-])c2)=NO1 (configuration not stated)
- TGI [1]: > 100 µM
- TGI [2]: > 100 µM
- TGI [6]: > 100 µM
- TGI [10]: > 100 µM
- TGI [8]: > 100 µM
- TGI [9]: > 100 µM

SMILES: CC(=O)c1cc(C(=O)c2ccc3c(c2)Sc2ccccc2N3)c2cc(C)ccn12
- GI50 [1]: 6.79 µM
- TGI [1]: > 100 µM
- GI50 [3]: 0.0411 µM
- TGI [3]: > 100 µM
- GI50 [4]: 0.188 µM
- TGI [4]: > 100 µM
- GI50 [5]: 0.0369 µM
- TGI [5]: > 100 µM
- GI50 [6]: 0.0598 µM
- TGI [6]: 0.346 µM
- GI50 [10]: > 100 µM
- TGI [10]: > 100 µM
- GI50 [7]: 0.0506 µM
- TGI [7]: > 100 µM
- GI50 [8]: 0.0515 µM
- TGI [8]: > 100 µM
- GI50 [9]: 0.189 µM
- TGI [9]: > 100 µM

SMILES: COc1cc(-c2cc(-c3cc(OC)c(OC)c(OC)c3)nc3nc(N)[nH]c(=O)c23)ccc1Oc1ccnc2cc(Cl)ccc12
- GI50 [1]: 4.75 µM
- TGI [1]: > 100 µM
- GI50 [2]: 7.08 µM
- TGI [2]: 60.8 µM
- GI50 [3]: 2.81 µM
- TGI [3]: 9.35 µM
- GI50 [4]: 3.51 µM
- TGI [4]: > 100 µM
- GI50 [5]: 2.14 µM
- TGI [5]: > 100 µM
- GI50 [6]: 12.9 µM
- TGI [6]: 30 µM
- GI50 [7]: 3.18 µM
- TGI [7]: > 100 µM
- GI50 [8]: 3.45 µM
- TGI [8]: > 100 µM
- GI50 [9]: 2.95 µM
- TGI [9]: 9.36 µM

SMILES: CC#CC1C2CCCC1(CSc1ccccc1)NC(=O)O2 (configuration not stated)
- TGI [2]: > 100 µM
- TGI [3]: > 100 µM
- TGI [6]: > 100 µM
- TGI [10]: > 100 µM
- TGI [8]: > 100 µM
- TGI [9]: > 100 µM
